# Results reported in patent US4084006A, “Method of using dialkylphenols an antiviral agents” (priority 1977, dated 1978).
# Experiments:
# [1] = tested on: Measles; test: Inhibition of cytopathic activity (CPE) of measles virus in HEL tissue culture; assay type: cell-based; settings: for CPE with 100 TCID50 doses of Measles virus: HEL cells
# Protocol: The anti-viral activity of 2,4-dimethylphenol was studied in the following manner. Tissue cultures derived from human embryonic lung (HEL) were grown and maintained as monolayers in 32 ounce prescription bottles using growth medium consisting of 85% synthetic mixture No. 199 plus 15% unfiltered fetal bovine serum (FBS) adjusted to pH 7.4. Tube cultures of HEL cells were prepared in similar fashion and used in assays for anti-viral activity. During chemotherapy tests, the maintenance medium consisted of synthetic mixture No. 199 with 7.5% FBS. The virus spectrum in tissue culture consisted of two DNA viruses, a San Carlos virus isolated by Davis [see Science 133, 2059, 1961] and later identified as an adenovirus, and the HF strain of herpes simplex virus. In addition, a RNA virus represented by measles was included in the examples.
# In performing the initial assays, the tissue cultures were treated prophylactically and the virus was treated in vitro with decreasing 2,4-dimethylphenol concentrations ranging from […] (2 × 10^-6) to 2 attograms (ag) (2 × 10^-18) per ml. The procedure consisted of pretreating tube cultures of HEL cells for two to three days with growth medium containing varying concentrations of 2,4-dimethylphenol. After the prophylactic treatment, the test fluids were removed and replaced with fresh maintenance medium. At this time, 200 TCID50 doses of virus were mixed in vitro with the same decreasing concentrations of the distillate used to pretreat the cells, then the mixture was inoculated into replicate culture of HEL cells so that the final incolum consisted of 100 TCID50 doses of virus in tubes with 2,4-dimethylphenol at the same level used to prophylactically treat the cells.
# The same number of infected control tubes were handled in the same way except that 2,4-dimethylphenol was omitted from all media. Culture tubes were rotated at 37° C. and examined daily for a period of 7 days for cytopathic activity (CPE). […] By the same token, the CPE of herpes virus was inhibited by both the 10^-12 and 10^-15 level, possibly indicating two active components. […]
# [2] = tested on: chronic respiratory disease (CRD); test: Treatment of chronic respiratory disease in inbred GM rats; assay type: in vivo, rat (GM); as to Dead animals: tested at 0.001 ppm; as to Ill animals: tested at 0.001 ppm; as to Well animals: tested at 0.001 ppm; as to new born rats, all appeared healthy: tested at 0.001 ppm; as to total number of rats in colony: tested at 0.001 ppm
# Protocol: One-half of a colony of spontaneously hypertensive (SH) rats was treated with 2,4-dimethylphenol in their drinking water at a concentration of one part per billion. The other half of this colony was given only tap water, and both groups observed for 76 days. The second experiment was with a highly inbred strain (GM) of rats that were about to expire, because of chronic respiratory infection. […] Both groups, the SH rats and the GM rats, were not breeding because of their infections and were in seriously poor health.
# The second experiment was run concurrently with Example 36, but this time the animals were the highly inbred GM strain. A number of these animals were ill with chronic respiratory disease and unable to breed. These rats were randomly divided into two groups of 26 each. The experimental group received 1 PPB of the 2,4-dimethylphenol in their drinking water and the control group received only tap water.
# [3] = tested on: pneumonia virus of mice (PVM); test: Serum PVM titers in rats; assay type: in vivo, pneumonia virus of mice (host: rat); settings: for Mycoplasma infected rats that failed to show titers for PVM: sera of 19 infected rats
# Description: Attempts were made to test the effect of infecting rats with Mycoplasma pulmonis (ATCC 19612) so that they could transmit the disease to their cage mates and, also allowed them to breed. This was also done to test if the mothers would pass the infection on to their litters. These rats were purchased from a laboratory in Indianapolis, Indiana and they were divided into 6 groups with male animals in each group. In the 5 experimental groups, a total of 15 female rats out of 30, and in the control group 4 female rats out of 8 were infected intranasally with Mycoplasma pulmonis (ATCC 19612). There were two male rats per experimental group and 3 for the controls totaling 13 male rats, and none of these were infected with M. pulmonis.
# The experimental groups (8 rats each) and control group were treated as follows:
# All rats were fed ad libitum rat chow, and their cages were cleaned 5-6 times weekly. For the 5 experimental groups, the 2,4 DMP was dissolved in distilled water used for their drinking fluid while the control only received distilled water. There were times when the rats spilled excessive amounts of their drinking water and this caused a certain amount of the phenol to be evaporated from these cages, particularly those groups receiving the higher concentrations of the phenol. This way, it was possible for the controls to inhale a small but indefinite amount of the phenol which is volatile. All animals were kept in the same laboratory room.
# All the male animals (13) were sacrificed after 14 days, and after impregnating the females. Their blood was collected by heart puncture, and the animals lungs were saved in 10% formalin for pathology. All the female rats (18) that were not infected, except one, intranasally with M. pulmonis were sacrificed 30 days post infection of their cage mates. All the young born to these rats (non-infected), during this time were also sacrificed. The blood and lungs from the adult females were saved for study.
# The 19 female rats infected with M. pulmonis and one non-infected female were allowed to raise their litters so that the young could be weaned, and then they were sacrificed 58 days post infection, saving their blood and lungs for study.
# When the offsprings from the M. pulmonis infected mothers were 40-50 days old a proportionate number selected at random were sacrificed, saving blood and lungs for study:
# The serum of each rat sacrificed was tested for antibodies for Mycoplasma. […] One of these rats was in the group receiving one part per million of the phenol and other was a control. Therefore, it was concluded that the Mycoplasma pulmonis was not the cause of the lung infection in these rats, but there was still enough pathology evident in these lungs to suspect some unknown infection. Consequently, the serum of the control rat showing a low titer for Mycoplasma pulmonis was screened by a commercial laboratory for virus infections commonly associated with rats.
# All blood serums saved from these experiments were tested for PVM titers. Sera from eight of the 13 males sacrificed at 14 days had detectable titers. All three of these controls had titers indicating PVM infection leaving 5 treated rats with titers for PVM. In the 18 non-infected female rats that were sacrificed after 30 days two rats were negative for PVM titers, one was in the 1 PPM and the other was in the 1 PPB treated groups.
# [4] = day 58, 1 PPB in drinking water, GM rats
# [5] = day 66, 1 PPB in drinking water, GM rats
# [6] = day 73, 1 PPB in drinking water, GM rats
# [7] = day 80, 1 PPB in drinking water, GM rats
# [8] = over 2.5 years, 1 PPB in drinking fluid, combined GM groups
compound,measurement,setting,value
"Cc1ccc(O)c(C)c1 [2,4-dimethylphenol]",CPE with 100 TCID50 doses of Measles virus,[1]; 10^-6 grams 2X,3+ (75% of cells infected with selected virus)
same,CPE with 100 TCID50 doses of Measles virus,[1]; 10^-7 grams 2X,3+ (75% of cells infected with selected virus)
same,CPE with 100 TCID50 doses of Measles virus,[1]; 10^-8 grams 2X,3+ (75% of cells infected with selected virus)
same,CPE with 100 TCID50 doses of Measles virus,[1]; 10^-9 grams 2X,2+ (50% of cells infected with selected virus)
same,CPE with 100 TCID50 doses of Measles virus,[1]; 10^-10 grams 2X,2+ (50% of cells infected with selected virus)
same,CPE with 100 TCID50 doses of Measles virus,[1]; 10^-11 grams 2X,2+ (50% of cells infected with selected virus)
same,CPE with 100 TCID50 doses of Measles virus,[1]; 10^-12 grams 2X,2+ (50% of cells infected with selected virus)
same,CPE with 100 TCID50 doses of Measles virus,[1]; 10^-13 grams 2X,2+ (50% of cells infected with selected virus)
same,CPE with 100 TCID50 doses of Measles virus,[1]; 10^-14 grams 2X,1+ (25% of cells infected with selected virus)
same,CPE with 100 TCID50 doses of Measles virus,[1]; 10^-15 grams 2X,1+ (25% of cells infected with selected virus)
same,CPE with 100 TCID50 doses of Measles virus,[1]; 10^-16 grams 2X,± (less than 10% infected)
same,CPE with 100 TCID50 doses of Measles virus,[1]; 10^-17 grams 2X,1+ (25% of cells infected with selected virus)
same,CPE with 100 TCID50 doses of Measles virus,[1]; 10^-18 grams 2X,0 (no cells infected)
same,Measles CPE,[1]; concentrations less than the 10^-14 level,appeared to be inhibited
same,"new born rats, all appeared healthy","[2]; by day 150, 1 PPB in drinking water, GM rats",31
same,breeding of experimental group,"[2]; by day 150, 1 PPB, GM rats, control group did not start breeding",began to breed
same,Ill animals,[2]; [4],3
same,Well animals,[2]; [4],23
same,Total number of rats,"[2]; day 58, 1 PPB in drinking water, GM rats, 26 at start",26
same,Ill animals,[2]; [5],3
same,Well animals,[2]; [5],23
same,Total number of rats,"[2]; day 66, 1 PPB in drinking water, GM rats, 26 at start",26
same,Ill animals,[2]; [6],2
same,Well animals,[2]; [6],24
same,Total number of rats,"[2]; day 73, 1 PPB in drinking water, GM rats, 26 at start",26
same,Dead animals,[2]; [7],1
same,Ill animals,[2]; [7],0
same,Well animals,[2]; [7],25
same,Total number of rats,"[2]; day 80, 1 PPB in drinking water, GM rats, 26 at start",25
same,Well animals,"[2]; day 150, 1 PPB in drinking water, GM rats",53
same,Total number of rats,"[2]; day 150, 1 PPB in drinking water, GM rats, includes 31 new born",56
same,Ill animals,"[2]; day 150, 1 PPB in drinking water, GM rats, only a trace of secretion",3
same,symptoms of the three rats listed as ill,"[2]; day 150, 1 PPB, GM rats",only a trace of secretion
same,state of colony,[2]; [8],the colony has continued to thrive
same,total number of rats in colony,[2]; [8],about 400
same,non-infected female rats negative for PVM titers,"[3]; 1 PPM, sacrificed after 30 days, all controls positive",one
same,offspring with detectable titers for PVM,"[3]; 47 offsprings tested, treated groups and controls exposed to vapors",not one
same,effect on PVM,"[3]; 51 rats purchased, drinking water",appeared to have had an effect on this virus so as to depress its passage to other animals
same,Mycoplasma infected rats that failed to show titers for PVM,[3]; 100 parts per billion,two
same,treated male rats with titers for PVM,"[3]; males sacrificed at 14 days, all treated groups, all three controls positive",5
same,Mycoplasma infected rats that failed to show titers for PVM,[3]; one part per million,two
